Columns and labels:
[1] = molecular target: T1, Estrogen receptor (Homo sapiens, UniProt Q92731+P03372); assay: Inhibition of 10e-9 M E2 stimulated transcriptional activation in ER+MCF-7/2a breast cancer cells; format: functional, cell-based; settings: cancer cell lines
[2] = molecular target: T1, Estrogen receptor; assay: Inhibition of 10e-9 M E2 stimulated MCF-7 breast cancer cell proliferation; format: functional, cell-based; settings: cancer cell lines
[3] = molecular target: T1, Estrogen receptor; assay: Inhibition of ER+ MCF-7 breast cancer cell proliferation over 200 hr; settings: cancer cell lines
[4] = molecular target: T1, Estrogen receptor; settings: Cancer cell lines, at 10 µM
Description: Inhibition of ER-MDA-MB 231 breast cancer cell proliferation over 96 hr at 10 uM

[5] = molecular target: T1, Estrogen receptor; settings: Cancer cell lines, at 5 µM
Description: Inhibition of ER-MDA-MB 231 breast cancer cell proliferation over 96 hr at 5 uM

SMILES	IC50 [1] [nM]	IC50 [2] [nM]	IC50 [3] [nM]	T/C [4] [%]	T/C [5] [%]
CC/C(=C(/CCCCCC(=O)N(C)CCCSCCCC(F)(F)C(F)(F)F)c1ccc(O)cc1)c1ccc(O)cc1	310	700			
CC/C(=C(/CCCCCCN(C)CCCSCCCC(F)(F)C(F)(F)F)c1ccc(O)cc1)c1ccc(O)cc1	10	7	0.22	-15	-15
CCCCCS(=O)(=O)CCCCCCCCCCn1c(-c2ccc(O)cc2)c(C)c2cc(O)ccc21	20	50	1.4	-2	84
C[C@]12CC[C@@H]3c4ccc(O)cc4C[C@@H](CCCCCCCCC[S+]([O-])CCCC(F)(F)C(F)(F)F)[C@H]3[C@@H]1CC[C@@H]2O (some centres not stated)				95	93
CCCCCS(=O)(=O)CCCCCCCCCC/C(=C(/CC)c1cccc(O)c1)c1ccc(O)cc1	50	110	6.1	32	90
CCCCCS(=O)(=O)CCCCCCCCCC/C(=C(/CC)c1ccc(O)cc1)c1ccc(O)cc1	130	100	5.1	-4	94
CCCCCSCCCCCCCCCC/C(=C(/CC)c1ccc(O)cc1)c1ccc(O)cc1	790	1400			
CCCCCSCCCCCCCCCC/C(=C(/CC)c1cccc(O)c1)c1ccc(O)cc1	200	590			
CCCCCSCCCN(C)CCCCCC/C(=C(/CC)c1ccc(O)cc1)c1ccc(O)cc1	10	10	0.75	-25	75
CCCCCS(=O)(=O)CCCCCCCCCC/C(=C(/CC)c1ccc(O)cc1)c1cccc(O)c1	370	270	49	-7	96
CCCCCSCCCN(C)C(=O)CCCCC/C(=C(/CC)c1ccc(O)cc1)c1ccc(O)cc1	600	1900			
CCCCCSCCCCCCCCCC/C(=C(/CC)c1ccc(O)cc1)c1cccc(O)c1	1200	2100			

Reference: ChEMBL document CHEMBL1137833, “Synthesis and biological evaluation of stilbene-based pure estrogen antagonists” (Bioorg Med Chem Lett, 2004)
